Results taken from patent publication US20160166700A1, “METHOD FOR AMELIORATING LIVER FIBROSIS BY USING NANOPARTICLE CONTAINING TYROSINE KINASE INHIBITOR” (National Tsing Hua University, priority 2014, published 2016).

Assays:
[1] = Pharmacokinetics of injected C6-loaded nanoparticle composition (C6 in blood); type: in vivo, C3H mice; conditions: 0.5 to 1 hour after injection; 0.1 mg/kg tail intravenous injection; FIG. 6
Experimental: C6 was injected to C3H mice with or without the nanoparticle encapsulation at a dosage of 0.1 mg/kg via tail intravenous injection. 40 μL of blood from the tail artery of the mice were collected and mixed with ethylenediaminetetraacetic acid (EDTA) at different period of time. Fluorescence intensity was measured under an excitation wavelength of 485 nm and an emission wavelength of 538 nm. Standard curves of the C6 or C6-loaded PLGA nanoparticle composition in blood were used to calculate the content of C6 in mice.

[2] = tested on: hepatic stellate cell (HSC); type: cell-based; conditions: HSCs; MTT after 48 or 72 hours; FIG. 5B
Experimental: The HSC was purchased from ScienCell Research Laboratories (#5300, San Diego, Calif., USA) and the HUVEC was obtained from Bioresource Collection and Research Center, Food Industry Research and Development Institute (BCRC number: H-UV001, Hsinchu, Taiwan). Firstly, HUVECs and HSCs were planted in 96-well plates at a density of 2,000 cells/well and were left overnight for adhesion. Then, different forms of sorafenib or drug carriers were added. After 48 or 72 hours, 3-(4, 5-cimethylthiazol-2-yl)-2, 5-diphenyl tetrazolium bromide (MTT), which dissolved in PBS, was added to each well and the cells were further incubated at 37° C. for 3 hours. Finally, to each well, 50 μL of DMSO were added and a spectrophotometer was used to analyze the result at a wavelength of 570 nm. […] In addition, cells without any treatment served as Vehicle Group, while cells treated with free sorafenib served as Positive Control Group. […] Meanwhile, according to the results of cell viability of the cells treated with the PEG-PLGA particle alone (Negative Control Group 1) and PEG-PLGA/PLGA nanoparticle composition alone (Negative Control Group 2), it is confirmed that the PEG-PLGA and PEG-PLGA/PLGA co-polymer are non-cytotoxic and will not result in death of the target cells.

[3] = tested on: α-smooth muscle actin (α-SMA); assay: α-SMA expression (western blotting) as indicator for HSC activation in treated mice; type: in vivo; conditions: FIG. 9A
Description: The expression of α-smooth muscle actin (α-SMA) is an indicator for HSC activation.

collagen I = assay: Extracellular matrix (collagen I) content in fibrotic liver of treated mice; type: in vivo; conditions: FIG. 9C
Description: Collagen is the most abundant protein in not only the human body but also the extracellular matrix.

Compound	C6 concentration in blood [1]	cell viability [2]	α-SMA expression (western blotting) [3]	extracellular matrix in fluorescent microscopic image (illuminated regions) (collagen I)
CCN(CC)c1ccc2cc(-c3nc4ccccc4s3)c(=O)oc2c1 [C6 alone, Coumarin 6]	about 1%	–	–	–
CNC(=O)c1cc(Oc2ccc(NC(=O)Nc3ccc(Cl)c(C(F)(F)F)c3)cc2)ccn1 [free sorafenib, sorafenib]	–	about 75%	suppressed	not noteworthy
